ChEMBL document CHEMBL1938237, “Bioactive lipids from the sponge Spirastrella abata” (Bioorg Med Chem Lett, 2012)
Converted amounts (≈) assume the structure as drawn.

What was measured:
[1] = Inhibition of Na+/K+ ATPase
Proteus vulgaris = test: Antibacterial activity against Proteus vulgaris ATCC 3851; assay type: functional
Escherichia coli = test: Antibacterial activity against Escherichia coli ATCC 35270; assay type: functional
[2] = Inhibition of isocitrate lyase
Staphylococcus aureus = test: Antibacterial activity against Staphylococcus aureus ATCC 6538p; assay type: functional
Micrococcus luteus = test: Antibacterial activity against Micrococcus luteus IFO 12708; assay type: functional
K562 = test: Cytotoxicity against human K562 cells; assay type: functional; details: read-out: LC50 (the source's name)
Aspergillus fumigatus = test: Antifungal activity against Aspergillus fumigatus HIC 6094; assay type: functional
Trichophyton rubrum = test: Antifungal activity against Trichophyton rubrum IFO 9185; assay type: functional
Bacillus subtilis = test: Antibacterial activity against Bacillus subtilis ATCC 6633; assay type: functional
Candida albicans = test: Antifungal activity against Candida albicans ATCC 10231; assay type: functional
[3] = system: Trichophyton mentagrophytes; test: Antifungal activity against Trichophyton mentagrophytes IFO 40996; assay type: functional
Salmonella typhimurium = test: Antibacterial activity against Salmonella Typhimurium ATCC 14028; assay type: functional, Salmonella enterica subsp. enterica serovar Typhimurium; details: Salmonella enterica

With `CCCCCCCCCCC/C=C/C[C@H](OS(=O)(=O)O)[C@H](O)[C@H](N)CO` the IC50 [1] was 25 µM, the MIC (Proteus vulgaris) was 25 µg/mL (≈ 63.2 µM) and the MIC (Escherichia coli) was over 100 µg/mL. The IC50 [2] was 2 µM, the MIC (Staphylococcus aureus) was 50 µg/mL (≈ 126 µM) and the MIC (Micrococcus luteus) was 25 µg/mL (≈ 63.2 µM). It also gave a CC50 (K562) of 8 µM, an MIC (Aspergillus fumigatus) of 100 µg/mL (≈ 253 µM) and an MIC (Trichophyton rubrum) of over 100 µg/mL. It also gave an MIC (Bacillus subtilis) of 6 µg/mL (≈ 15.2 µM), an MIC (Candida albicans) of 50 µg/mL (≈ 126 µM) and an MIC [3] of 50 µg/mL (≈ 126 µM). It also gave an MIC (Salmonella typhimurium) of 100 µg/mL (≈ 253 µM).

Compound `CCCCCCCCCC/C=C/C[C@H](OS(=O)(=O)O)[C@H](O)[C@H](N)CO` has an IC50 [1] of 21 µM, an MIC (Proteus vulgaris) of 25 µg/mL (≈ 65.5 µM) and an MIC (Escherichia coli) of over 100 µg/mL. It also gave an IC50 [2] of 20 µM, an MIC (Staphylococcus aureus) of over 100 µg/mL and an MIC (Micrococcus luteus) of 100 µg/mL (≈ 262 µM). For the same compound, the CC50 (K562) was 7 µM, the MIC (Aspergillus fumigatus) was over 100 µg/mL and the MIC (Trichophyton rubrum) was over 100 µg/mL. It also gave an MIC (Bacillus subtilis) of 12 µg/mL (≈ 31.5 µM), an MIC (Candida albicans) of over 100 µg/mL and an MIC [3] of over 100 µg/mL. The MIC (Salmonella typhimurium) was over 100 µg/mL.

`CC(C)CCCCCCCC/C=C/C[C@H](OS(=O)(=O)O)[C@H](O)[C@H](N)CO` showed an IC50 [1] of 21 µM, an MIC (Proteus vulgaris) of 100 µg/mL (≈ 253 µM) and an MIC (Escherichia coli) of over 100 µg/mL. For the same compound, the IC50 [2] was 24 µM, the MIC (Staphylococcus aureus) was over 100 µg/mL and the MIC (Micrococcus luteus) was 100 µg/mL (≈ 253 µM). For the same compound, the CC50 (K562) was 8 µM, the MIC (Aspergillus fumigatus) was over 100 µg/mL and the MIC (Trichophyton rubrum) was over 100 µg/mL. It also gave an MIC (Bacillus subtilis) of 100 µg/mL (≈ 253 µM), an MIC (Candida albicans) of over 100 µg/mL and an MIC [3] of over 100 µg/mL. The MIC (Salmonella typhimurium) was 100 µg/mL (≈ 253 µM).

`O=C(O)CC[N+](=O)[O-]` gave an IC50 [2] of 1 µM.

With `CCCCCC[C@H]1C[C@H]1CCCCCCCCCC(=O)OC[C@@H](O)COP(=O)([O-])OCC(O)CO.[Na+]` (relative stereo) the IC50 [1] was 4 µM, the MIC (Proteus vulgaris) was over 100 µg/mL and the IC50 [2] was 87 µM. For the same compound, the MIC (Staphylococcus aureus) was over 100 µg/mL, the CC50 (K562) was 4 µM and the MIC (Aspergillus fumigatus) was over 100 µg/mL. The MIC (Candida albicans) was 13 µg/mL.

For `C[C@@H]1[C@H](O)[C@@H](C)/C=C/C=C/C=C/C=C/C=C/C=C/C=C/[C@H](O[C@@H]2O[C@H](C)[C@@H](O)[C@H](N)[C@@H]2O)C[C@@H]2O[C@](O)(C[C@@H](O)C[C@@H](O)[C@H](O)CC[C@@H](O)C[C@@H](O)CC(=O)O[C@H]1C)C[C@H](O)[C@H]2C(=O)O` [AMPHOTERICIN B], the MIC (Aspergillus fumigatus) was 1 µg/mL (≈ 1.08 µM), the MIC (Trichophyton rubrum) was 2 µg/mL (≈ 2.16 µM) and the MIC (Candida albicans) was 1 µg/mL (≈ 1.08 µM). For the same compound, the MIC [3] was 2 µg/mL (≈ 2.16 µM).

With `CC1(C)S[C@@H]2[C@H](NC(=O)[C@H](N)c3ccccc3)C(=O)N2[C@H]1C(=O)O` [AMPICILLIN] the MIC (Proteus vulgaris) was 1 µg/mL (≈ 2.86 µM), the MIC (Escherichia coli) was 6 µg/mL (≈ 17.2 µM) and the MIC (Staphylococcus aureus) was 1 µg/mL (≈ 2.86 µM). The MIC (Micrococcus luteus) was 2 µg/mL (≈ 5.72 µM), the MIC (Bacillus subtilis) was 2 µg/mL (≈ 5.72 µM) and the MIC (Salmonella typhimurium) was 2 µg/mL (≈ 5.72 µM).

For `COc1cccc2c1C(=O)c1c(O)c3c(c(O)c1C2=O)C[C@@](O)(C(=O)CO)C[C@@H]3O[C@H]1C[C@H](N)[C@H](O)[C@H](C)O1` [DOXORUBICIN], the CC50 (K562) was 7 µM.

Compound `C[C@@H]1O[C@@H](O[C@H]2C[C@@H](O)[C@]3(CO)[C@H]4[C@H](O)C[C@]5(C)[C@@H](C6=CC(=O)OC6)CC[C@]5(O)[C@@H]4CC[C@]3(O)C2)[C@H](O)[C@H](O)[C@H]1O` [OUABAIN] has an IC50 [1] of 4 µM.
